# Test results published in patent publication US7915220B2, “Peptidomimetic agents from dextrorotatory amino acids as well as pharmaceutical agents that contain the latter for treatment of neurodegenerative diseases” (JSW-Research Forschungslabor GmbH, priority 2006, dated 2011).
# Where a SMILES comes first, the peptide text is derived from it. [ ]: non-standard residue; d: D form.
# What was measured:
# [1] = Stability of peptides incubated with rat brain homogenate (RP-HPLC / LC-MS); assay type: in vitro ADME; settings: for remaining at 0.25 h, 0.2 mM / remaining at 1 h, 0.2 mM / remaining at 3 h, 0.2 mM / remaining at 24 h, 0.2 mM: pH 7.6, 37° C.; for remaining at 0.25 h, 0.2 mM: 15 minutes, read-out: portion of the amount of sample used left after 15 Minutes; for remaining at 1 h, 0.2 mM: read-out: portion of the amount of sample used left after 1 Hour; for remaining at 3 h, 0.2 mM: read-out: portion of the amount of sample used left after 3 Hours; for remaining at 24 h, 0.2 mM: read-out: portion of the amount of sample used left after 24 Hours; for half-life at 0.2 mM: tris buffer pH 7.6, 37° C.
# Procedure: An essential advantage of the peptidomimetic agents according to the invention, which consist of D-amino acids as well as glycine, is the higher stability compared to the degradation by various enzymes that occur in the body—in particular peptidases. For this reason, the stability of the nuclear sequence mimetic agent vGek was compared to that of the corresponding retroinverse peptide KEGV according to WO 03/082906 A, whereby the peptides together with a rat brain homogenate were incubated for 15 minutes as well as for 1, 3 and 24 hours.
# To this end, freshly isolated rat brain was homogenized in tris buffer (pH 7.6) and used immediately. In each case, a portion of a 1 mmol peptide solution and four parts of the homogenate were incubated at 37° C. After the incubation, the decomposition of the enzymes was halted by adding 50 μl of 0.1 M HCl. Then, a denaturation of the proteins was carried out with methanol (volume ratio: 1:4) at −20° C. for 60 minutes. Then, it was centrifuged for 20 minutes at 4° C. and 29,000 g.
# Finally, the samples were concentrated under vacuum and analyzed by means of RP-HPLC (liquid chromatography, with UV/vis detector, detection wavelength: 220 nm; solvent: (A) 0.1% TFA/water (A), 0.1% TFA in 80% ACN/water (B); column: Phenomenex Jupiter C18 (250×4 mm, 5 μm of 300 Å), flow rate: 1.2 ml/minute, gradients: 0 to 15% B after 30 minutes (KEGVOH), 0% isocratic B for 10 minutes, then at 0 to 15% B after 30 minutes (KEGVNH2), 0 to 15% B after 20 minutes (vGekNH2)).
# As an alternative, LC-MS (Applied Biosystems 140C Microgradient System; solvent: 0.1% HCOOH/water (A), 0.1% HCOOH in 80% acetonitrile/water (B); column: Alltech Hypersil C18 (150×2.1 mm, 5 μm of 100 Å), flow rate: 0.15 ml/minute, gradient: 0 to 15% B after 20 minutes; detector: Finnigan TSQ-7000 Triple Quadrupole Mass Spectrometer, m/z Range; 10-1000, scan time: 1.0 second) was also used.
# SHSY-5Y cells = test: MTT test, injury of differentiated SHSY-5Y cells with pre-aggregated Aβ-1-42; assay type: cell-based
# Procedure: To examine the action of the peptidomimetic agent according to the invention in a relevant biological system, injury tests were performed in cell cultures with Aβ-1-42 (β-amyloid). Differentiated SHSY-5Y cells were used as cell culture systems.
# The cells that were still not differentiated were cultivated in 96-well plates at 37° C. in an atmosphere in DMEM/F12 (Cambrex) that contains 5% CO2 until confluence is completed. For differentiation, the following medium composition was selected: 10 μmol of All-Trans-retinoic acid, 10% FBS, 4 mmol of L-glutamine, 200 units/ml of penicillin, 200 μg/ml of streptomycin, 0.5% DMSO in MEM non-essential amino acids (e.g., Cambrex). After 8 days in the differentiation medium, 3×10^5 cells/cm^2 in the form of a monolayer were present.
# Before the application, the test substances were irradiated for 10 minutes in a form already dissolved in culture medium. This medium contained 2% FBS (fetal bovine serum) and was free of phenol red, retinoic acid and DMSO.
# Aβ-1-42 was pre-aggregated before the addition for 24 hours at room temperature while being shaken lightly. […]
# Then, the medium was carefully emptied, and the formazan crystals that were produced were dissolved with a DMSO/ethanol solution (4:1). Finally, the color intensity obtained was measured at 550 nm in an ELISA reader. […]
# [2] = Blood-brain barrier passage of tritiated vGek in rats (radioactivity in organs); assay type: in vivo
# Procedure: The test was performed as follows:
# Rats were injected with […] of tritiated vGek (vGek of specific activity: 34.0 Ci/mmol). 10, 30 and 60 minutes after the injection, the animals were anesthetized, and blood as well as a few organs were removed for examination and weighed. Depending on the organ, 50-250 mg of tissue was removed in a solvent and incubated at 60° C. for 2 hours. After cooling to room temperature, 200 μl of 30% H2O2 was added. Then, another incubation at 60° C. was carried out for 30 minutes. Finally, the radioactivity was determined with the aid of a scintillation measuring device.
"remaining at 0.25 h, 0.2 mM [1]","remaining at 1 h, 0.2 mM [1]","remaining at 3 h, 0.2 mM [1]","remaining at 24 h, 0.2 mM ([1]; 24 hours)",half-life at 0.2 mM [1],Compound,other results
22%,0%,0%,0%,< 0.25 h,CC(C)[C@H](NC(=O)CNC(=O)[C@H](CCC(=O)O)NC(=O)[C@@H](N)CCCCN)C(N)=O [KEGVNH2] (H-KEGV-NH2; N-terminus assumed),
14%,0%,0%,0%,< 0.25 h,CC(C)[C@H](NC(=O)CNC(=O)[C@H](CCC(=O)O)NC(=O)[C@@H](N)CCCCN)C(=O)O [KEGVOH] (H-KEGV-OH; N-terminus assumed),
,,,,,"CC(C)[C@@H](N)C(=O)NCC(=O)N[C@H](CCC(=O)O)C(=O)N[C@H](CCCCN)C(=O)O [vGek, Dval-gly-Dglu-Dlys] (H-[dV]G[dE][dK]-OH; N-terminus and C-terminus assumed)",influence on the survival of cells (toxicity of the peptide alone) (SHSY-5Y cells; 50 μmol vGek alone): no detectable influence on the survival of cells; stability above that of the corresponding peptide KEGV ([1]; in vitro): 2-3 orders of magnitude; highest measured value in the brain ([2]; injection of 2.94 mmol tritiated vGek): 1.33 pmol; passage through the blood-brain barrier ([2]; tritiated vGek): could overcome the blood-brain barrier
,,70%,50%,20 to 24 h,CC(C)[C@@H](N)C(=O)NCC(=O)N[C@H](CCC(=O)O)C(=O)N[C@H](CCCCN)C(N)=O [vGekNH2] (H-[dV]G[dE][dK]-NH2; N-terminus assumed),"detectability of peptide after 24 hours ([1]; 37° C., 24 hours): can be detected"
,,,,,"Aβ-1-42: amyloidogenic β-amyloid peptide with 42 amino acids, used pre-aggregated to damage cells",survival rate of SHSY-5Y cells (SHSY-5Y cells; 10 μmol of pre-aggregated Aβ-1-42 alone): 56%
